Read-outs that look alike come from different tables or passages of the source. Square brackets hold non-standard residues; d marks the D form. Primed or numbered codes have the meaning given here. Ends that are not written are not given here. Peptide text beside a SMILES is read from it. Gla′ = gamma-carboxyglutamate (g in names)
How the values were obtained:
[1] = target: T1, NMDA receptor (Rattus norvegicus, UniProt P35439+Q00960); assay: biochemical; assay type: binding
T1 construct: other: test compound in the absence of spermine; concentration at 50% of maximum stimulation; % Sti; spermine = 100; other: with and without spermine; absence of spermine; % STI; absence

[2] = test system: NMDA receptor; assay type: binding, rat
[3] = read-out: IC50, inhibition of spermine-enhanced [3H]MK-801 binding

T1 sequence (Q00960 27-1482, other chains not shown): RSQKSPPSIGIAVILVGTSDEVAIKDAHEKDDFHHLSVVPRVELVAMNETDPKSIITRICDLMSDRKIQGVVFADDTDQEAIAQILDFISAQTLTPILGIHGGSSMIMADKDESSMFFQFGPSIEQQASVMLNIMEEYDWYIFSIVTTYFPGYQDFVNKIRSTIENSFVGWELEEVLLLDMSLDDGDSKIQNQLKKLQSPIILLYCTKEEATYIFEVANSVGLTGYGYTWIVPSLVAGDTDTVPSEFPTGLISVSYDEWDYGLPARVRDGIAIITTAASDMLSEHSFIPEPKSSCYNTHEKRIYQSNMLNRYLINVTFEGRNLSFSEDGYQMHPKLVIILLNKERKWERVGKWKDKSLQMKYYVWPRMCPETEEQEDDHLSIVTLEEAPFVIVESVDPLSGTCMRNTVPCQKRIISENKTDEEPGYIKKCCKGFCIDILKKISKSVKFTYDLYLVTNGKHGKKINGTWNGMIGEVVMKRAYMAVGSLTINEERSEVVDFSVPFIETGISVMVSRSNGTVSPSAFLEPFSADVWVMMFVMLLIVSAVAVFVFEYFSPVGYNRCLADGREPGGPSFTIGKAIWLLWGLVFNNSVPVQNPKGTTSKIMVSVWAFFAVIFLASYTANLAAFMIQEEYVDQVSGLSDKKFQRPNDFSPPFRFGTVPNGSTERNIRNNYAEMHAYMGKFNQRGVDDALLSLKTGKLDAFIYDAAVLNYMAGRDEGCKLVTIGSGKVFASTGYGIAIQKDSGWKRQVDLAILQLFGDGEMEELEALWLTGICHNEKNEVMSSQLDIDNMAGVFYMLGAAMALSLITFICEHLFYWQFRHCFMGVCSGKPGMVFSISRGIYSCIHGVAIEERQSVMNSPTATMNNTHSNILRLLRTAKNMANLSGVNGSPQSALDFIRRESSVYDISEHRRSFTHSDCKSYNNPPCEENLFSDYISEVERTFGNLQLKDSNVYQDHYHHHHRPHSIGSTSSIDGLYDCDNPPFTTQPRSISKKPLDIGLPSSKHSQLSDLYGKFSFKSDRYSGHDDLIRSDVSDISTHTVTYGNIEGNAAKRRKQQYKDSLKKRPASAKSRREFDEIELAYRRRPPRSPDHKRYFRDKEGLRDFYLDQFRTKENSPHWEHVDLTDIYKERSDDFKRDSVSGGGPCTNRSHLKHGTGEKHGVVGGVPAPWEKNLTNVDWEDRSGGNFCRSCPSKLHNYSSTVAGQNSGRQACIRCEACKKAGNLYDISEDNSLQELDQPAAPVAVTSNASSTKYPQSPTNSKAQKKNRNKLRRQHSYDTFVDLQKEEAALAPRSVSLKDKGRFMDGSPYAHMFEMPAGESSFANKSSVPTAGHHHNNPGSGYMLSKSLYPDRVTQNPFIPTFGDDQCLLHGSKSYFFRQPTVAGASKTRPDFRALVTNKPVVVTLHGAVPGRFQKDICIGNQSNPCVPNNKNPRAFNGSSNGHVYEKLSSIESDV

CC[C@H](C)[C@H](NC(=O)[C@H](CC(C)C)NC(=O)[C@H](COP(=O)(O)O)NC(=O)[C@H](CCC(N)=O)NC(=O)[C@H](CC(N)=O)NC(=O)[C@H](CC(C(=O)O)C(=O)O)NC(=O)[C@H](CCC(N)=O)NC(=O)[C@H](CC(C)C)NC(=O)[C@H](CC(C(=O)O)C(=O)O)NC(=O)[C@H](CC(C(=O)O)C(=O)O)NC(=O)[C@H](CCC(=O)O)NC(=O)CN)C(=O)N[C@@H](CCCNC(=N)N)C(=O)N[C@@H](CC(C(=O)O)C(=O)O)C(=O)N[C@@H](CCCCN)C(=O)N[C@@H](CO)C(=O)N[C@@H](CC(N)=O)C(N)=O [Ser(p)10-Con-G, GEggLQgNQS(p)LIRgKSN]
% Sti ([1]; forebrain membranes): 0% | % Inh [2]: 100% | IC50 [2, 3]: 560 ± 200 nM

GEggL-AAA-gKSN (GEXXLAAAXKSN; gamma-carboxyglutamate residues) [ConG(1-5)AAAA(14-17)]
% Sti [1]: 0%

GEgS(p)LQgNQgLIRgKSN (GEXSLQXNQXLIRXKSN; phosphoserine) [Ser(p)4-Con-G]
% Sti [1]: 0% | % Inh [2]: 0%

GEggL-AA-gKSN (GEXXLAAXKSN; gamma-carboxyglutamate residues) [ConG(1-5)AA(14-17)]
% Sti [1]: 0%

CC[C@H](C)[C@H](NC(=O)[C@H](CC(C)C)NC(=O)[C@H](CCC(=O)O)NC(=O)[C@H](CCC(N)=O)NC(=O)[C@H](CC(N)=O)NC(=O)[C@H](CCC(=O)O)NC(=O)[C@H](CCC(N)=O)NC(=O)[C@H](CC(C)C)NC(=O)[C@H](CCC(=O)O)NC(=O)[C@H](CCC(=O)O)NC(=O)[C@H](CCC(=O)O)NC(=O)CN)C(=O)N[C@@H](CCCNC(=N)N)C(=O)N[C@@H](CCC(=O)O)C(=O)N[C@@H](CCCCN)C(=O)N[C@@H](CO)C(=O)N[C@@H](CC(N)=O)C(N)=O [Glu3,4,7,10,14-Con-G]
Emax ([1]; read-out: % STI): 79% | Emax ([1]; read-out: % Sti): 79% | % INH [2]: 22% | % Inh [2]: 22% | IC50 ([2]; read-out: IC50): 8500 nM | IC50 ([2]; read-out: Spermine IC): 8500 nM

EEELQENQELIREKSN-NH2 [Glu3,4,7,10-Con-G(2-17)]
Emax ([1]; read-out: % STI): 33% | Emax ([1]; read-out: % Sti): 33% | % INH [2]: 70% | % Inh [2]: 70% | IC50 ([2]; read-out: IC50): 5400 nM | IC50 ([2]; read-out: Spermine IC): 5400 nM

GEggL-BB-gKSN [ConG(1-5)BB(14-17)]
% Sti [1]: 0%

GEggL-GGGG-gKSN (GEXXLGGGGXKSN; gamma-carboxyglutamate residues) [ConG(1-5)GGGG(14-17)]
% Sti [1]: 0%

CC[C@H](C)[C@H](NC(=O)[C@H](CC(C)C)NC(=O)[C@H](CC(C(=O)O)C(=O)O)NC(=O)[C@H](CCC(N)=O)NC(=O)[C@H](CC(N)=O)NC(=O)[C@H](CC(C(=O)O)C(=O)O)NC(=O)[C@H](CCC(N)=O)NC(=O)[C@H](CC(C)C)NC(=O)[C@H](CC(C(=O)O)C(=O)O)NC(=O)[C@H](CC(C(=O)O)C(=O)O)NC(=O)[C@H](CCC(=O)O)NC(=O)CN)C(=O)N[C@@H](CCCNC(=N)N)C(=O)N[C@@H](COP(=O)(O)O)C(=O)N[C@@H](CCCCN)C(=O)N[C@@H](CO)C(=O)N[C@@H](CC(N)=O)C(N)=O [Ser(p)14-Con-G, GEggLQgNQgLIRS(p)KSN]
% Sti ([1]; forebrain membranes): 0% | % Inh [2]: 31 ± 0.5% | inhibition of [3H]MK-801 binding produced by maximally effective spermine [2]: 31% | IC50 [2, 3]: 1120 ± 50 nM

NCCCCNCCCN [Spermidine, reference compound]
Emax ([1]; read-out: % Sti): 97% | % Inh [2]: 0%

CC[C@H](C)[C@H](NC(=O)[C@H](CC(C)C)NC(=O)[C@H](C)NC(=O)[C@H](CCC(N)=O)NC(=O)[C@H](CC(N)=O)NC(=O)[C@H](CC(C(=O)O)C(=O)O)NC(=O)[C@H](CCC(N)=O)NC(=O)[C@H](CC(C)C)NC(=O)[C@H](CC(C(=O)O)C(=O)O)NC(=O)[C@H](CC(C(=O)O)C(=O)O)NC(=O)[C@H](CCC(=O)O)NC(=O)CN)C(=O)N[C@@H](CCCNC(=N)N)C(=O)N[C@@H](CC(C(=O)O)C(=O)O)C(=O)N[C@@H](CCCCN)C(=O)N[C@@H](CO)C(=O)N[C@@H](CC(N)=O)C(N)=O [Ala10-Con-G, GEggLQgNQALIRgKSN]
Emax ([1]; read-out: % Sti): 0% | % Inh [2]: 100% | IC50 ([2]; read-out: Spermine IC): 1100 ± 300 nM

GEgSLQgNQgLJRgKSN [Ser4-Con-G]
% Sti [1]: 0% | % Inh [2]: 0%

GEggLQ-AAAAAAA-gKSN (GE[Gla′][Gla′]LQAAAAAAA[Gla′]KSN) [ConG(1-6)A7(14-17)]
% Sti [1]: 0%

RSgNK (RS[Gla′]NK) [scrambled Con-G]
activity in [3H]MK-801 binding (spanning cell of Table II) [1]: inactive

GEggL-GG-gKSN (GEXXLGGXKSN; gamma-carboxyglutamate residues) [ConG(1-5)GG(14-17)]
% Sti [1]: 0%

Y-GEggLQgNQgLIRgKSN [Tyr^o-Con-G]
% Sti [1]: 0% | % Inh [2]: 0%

CC[C@H](C)[C@H](NC(=O)[C@H](CC(C)C)NC(=O)[C@H](CC(C(=O)O)C(=O)O)NC(=O)[C@H](CCC(N)=O)NC(=O)[C@H](CC(N)=O)NC(=O)[C@H](COP(=O)(O)O)NC(=O)[C@H](CCC(N)=O)NC(=O)[C@H](CC(C)C)NC(=O)[C@H](CC(C(=O)O)C(=O)O)NC(=O)[C@H](CC(C(=O)O)C(=O)O)NC(=O)[C@H](CCC(=O)O)NC(=O)CN)C(=O)N[C@@H](CCCNC(=N)N)C(=O)N[C@@H](CC(C(=O)O)C(=O)O)C(=O)N[C@@H](CCCCN)C(=O)N[C@@H](CO)C(=O)N[C@@H](CC(N)=O)C(N)=O [Ser(p)7-Con-G, GEggLQS(p)NQgLIRgKSN]
% Sti ([1]; forebrain membranes): 0% | % Inh [2]: 50±3.8% | inhibition of [3H]MK-801 binding produced by maximally effective spermine [2]: 50% | IC50 [2, 3]: 1040 ± 300 nM

IAEASN [Ala13,15, Glul4-Con-G(12-17)]
activity in [3H]MK-801 binding (spanning cell of Table II) [1]: inactive

CC[C@H](C)[C@H](NC(=O)[C@H](CC(C)C)NC(=O)[C@H](CC(C(=O)O)C(=O)O)NC(=O)[C@H](CCC(N)=O)NC(=O)[C@H](CC(N)=O)NC(=O)[C@H](Cc1cc(I)c(O)c(I)c1)NC(=O)[C@H](CCC(N)=O)NC(=O)[C@H](CC(C)C)NC(=O)[C@H](CC(C(=O)O)C(=O)O)NC(=O)[C@H](CC(C(=O)O)C(=O)O)NC(=O)[C@H](CCC(=O)O)NC(=O)CN)C(=O)N[C@@H](CCCNC(=N)N)C(=O)N[C@@H](CC(C(=O)O)C(=O)O)C(=O)N[C@@H](CCCCN)C(=O)N[C@@H](CO)C(=O)N[C@@H](CC(N)=O)C(N)=O [di-iodo-Tyr7-Con-G, GEggLQY(JI)NQgLIRgKSN]
Emax ([1]; read-out: % Sti): 0% | % Inh [2]: 100% | IC50 ([2]; read-out: Spermine IC): 500 nM

F(pC1)-GEggLQgNQgLIRgKSN (FGEXXLQXNQXLIRXKSN; N-terminal p-chloro-Phe; gamma-carboxyglutamate residues) [Phe(pCl)^o-Con-G]
% Sti [1]: 0% | % Inh [2]: 0%

Y(p)-GEggLQgNQgLIRgKSN (YGEXXLQXNQXLIRXKSN; phosphotyrosine) [Tyr(p)^o-Con-G]
% Sti [1]: 0% | % Inh [2]: 0%

GEYgLQgNQgLIRgKSN [Tyr3-Con-G]
% Sti [1]: 0% | % Inh [2]: 0%

GEggL-cyclic (GEXXL; cyclic; gamma-carboxyglutamate residues) [Cyclic ConG(1-5)]
activity in [3H]MK-801 binding (spanning cell of Table II) [1]: inactive

IREASN [Glu 14, Alal5-Con-G(12-17)]
activity in [3H]MK-801 binding (spanning cell of Table II) [1]: inactive

QENQELIREKSN [Glu 7,10,14-Con-G (6-17)]
% Sti [1]: 0% | % Inh [2]: 0%

RgKSN (R[Gla′]KSN) [Con-G(13-17)]
activity in [3H]MK-801 binding (spanning cell of Table II) [1]: inactive

CC[C@H](C)[C@H](NC(=O)[C@H](CC(C)C)NC(=O)[C@H](CCC(=O)O)NC(=O)[C@H](CCC(N)=O)NC(=O)[C@H](CC(N)=O)NC(=O)[C@H](CCC(=O)O)NC(=O)[C@H](CCC(N)=O)NC(=O)[C@H](CC(C)C)NC(=O)[C@H](CCC(=O)O)NC(=O)[C@H](CCC(=O)O)NC(=O)[C@H](CCC(=O)O)NC(=O)CNC(=O)[C@@H](N)Cc1ccc(O)cc1)C(=O)N[C@@H](CCCNC(=N)N)C(=O)N[C@@H](CCC(=O)O)C(=O)N[C@@H](CCCCN)C(=O)N[C@@H](CO)C(=O)N[C@@H](CC(N)=O)C(N)=O [Tyr^o-Glu3,4,7,10,14-Con-G]
stimulation of [3H]MK-801 binding in the absence of spermine [1]: stimulated | Emax ([1]; read-out: % Sti): 31% | % Inh [2]: 0% | inhibition of spermine-induced [3H]MK-801 binding [2]: no inhibition

GEgALQgNQgLJRgKSN (GEXALQXNQXLIRXKSN; gamma-carboxyglutamate residues) [Ala4-Con-G]
% Sti [1]: 0% | % Inh [2]: 0%

CC[C@H](C)[C@H](NC(=O)[C@H](CC(C)C)NC(=O)[C@H](CC(C(=O)O)C(=O)O)NC(=O)[C@H](CCC(N)=O)NC(=O)[C@H](CC(N)=O)NC(=O)[C@H](CC(C(=O)O)C(=O)O)NC(=O)[C@H](CCC(N)=O)NC(=O)[C@H](CC(C)C)NC(=O)[C@H](CC(C(=O)O)C(=O)O)NC(=O)[C@H](CC(C(=O)O)C(=O)O)NC(=O)[C@H](CCC(=O)O)NC(=O)CNC(=O)[C@@H](N)CC(=O)N[C@@H]1O[C@H](CO)[C@@H](O)[C@H](O)[C@H]1NC(C)=O)C(=O)N[C@@H](CCCNC(=N)N)C(=O)N[C@@H](CC(C(=O)O)C(=O)O)C(=O)N[C@@H](CCCCN)C(=O)N[C@@H](CO)C(=O)N[C@@H](CC(N)=O)C(N)=O [Asn(GlcNAc)^o-Con-G, N(GlcOc)-GEggLQgNQgLIRgKSN]
% Sti ([1]; forebrain membranes): 0% | % Inh [2]: 38% | IC50 ([2]; read-out: Spermine IC): 8800 nM

NCCCNCCCCNCCCN [Spermine, reference compound]
% Sti ([1]; forebrain membranes): 100% | % Inh [2]: 0%

CC[C@H](C)[C@H](NC(=O)[C@H](CC(C)C)NC(=O)[C@H](C)NC(=O)[C@H](CC(C)C)NC(=O)[C@H](C)NC(=O)[C@H](C)NC(=O)[C@H](CCC(N)=O)NC(=O)[C@H](CC(C)C)NC(=O)[C@H](CC(C(=O)O)C(=O)O)NC(=O)[C@H](CC(C(=O)O)C(=O)O)NC(=O)[C@H](CCC(=O)O)NC(=O)CN)C(=O)N[C@@H](CCCNC(=N)N)C(=O)N[C@@H](C)C(=O)N[C@@H](CCCCN)C(=O)N[C@@H](CO)C(=O)N[C@@H](CC(N)=O)C(N)=O [alpha helix ConG, GEggLQAALALJRAKSN] (HELM PEPTIDE1{G.E.[O=C(O)C(C[C@H](N[*:1])C(=O)[*:2])C(=O)O].[O=C(O)C(C[C@H](N[*:1])C(=O)[*:2])C(=O)O].L.Q.A.A.L.A.L.I.R.A.K.S.N.[am]}$$$$V2.0)
Emax ([1]; read-out: % Sti): 0% | % Inh [2]: 100% | IC50 ([2]; read-out: Spermine IC): 1500 nM

IAEKSN [Ala13, Glul4-Con-G(12-17)]
activity in [3H]MK-801 binding (spanning cell of Table II) [1]: inactive

GEggLQ-AAAAA-gKSN (GE[Gla′][Gla′]LQAAAAA[Gla′]KSN) [ConG(1-6)AS(14-17)]
% Sti [1]: 0%
